These results are taken from publication PMC11714206, “Massively Parallel Screening of Toll/Interleukin‐1 Receptor (TIR)‐Derived Peptides Reveals Multiple Toll‐Like Receptors (TLRs)‐Targeting Immunomodulatory Peptides” (Advanced Science, 2024).

In the assay the target is T1, MAL^TIR (Homo sapiens, UniProt P58753).
T1 construct: MAL (residues 79–221); 6xHis; made in house; host or cells: E. coli BL21 (DE3)
Nature of the assay: T‐Surf phage library (P8 and P3) selection against MAL^TIR, four rounds, NGS read counts. The conditions noted are these: for P8_MAL Rank (after) / P8_MAL Rank (before): P8 library; for Population: 4th round of selection against MAL TIR, share of NGS reads; for P3_MAL Rank (after) / P3_MAL Rank (before): P3 library. The class given is binding. The method in brief:
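Read counts come from NGS of phage pools enriched over four selection rounds on the plate‐coated TIR domain (5 µg mL^−1). Each round: 1 h phage binding at room temperature after 0.2% BSA blocking, Tween washes, acid elution, amplification in E. coli TG1 with M13KO7 helper.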

Setting [1] is: selection against MAL TIR, rank by count after grouping.
[2] abbreviates: selection against MAL TIR, rank by count before grouping.
[3] abbreviates: P3_MAL pool: P3 T-Surf phage library.
Where [4] appears, read: P8_MAL: rank by count after grouping.
Setting [5] is: P8_MAL: rank by count before grouping.
Where [6] appears, read: P8_MAL pool: P8 T-Surf phage library.
Where [7] appears, read: 4R selection against MAL, rank after grouping.
Setting [8] is: 4R selection against MAL, rank before grouping.
Where [9] appears, read: selection against MAL, rank after grouping.
The mark [10] stands for this setting: selection against MAL, rank before grouping.
[11] abbreviates: P3_MAL: rank by count after grouping.
Setting [12] is: P3_MAL: rank by count before grouping.
The mark [13] stands for this setting: selection against MAL, rank by count after grouping.
[14] abbreviates: selection against MAL, rank by count before grouping.

T1 sequence (P58753 79-221): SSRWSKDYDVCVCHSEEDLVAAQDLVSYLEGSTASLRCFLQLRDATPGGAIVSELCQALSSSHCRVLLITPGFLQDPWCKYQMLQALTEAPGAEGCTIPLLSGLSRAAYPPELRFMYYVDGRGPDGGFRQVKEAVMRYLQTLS

For RNFVAYLFQALADKGV, the “P8_MAL Rank (after)” value under setting [1] amounted to 273. The “P8_MAL Rank (before)” value under setting [2] turned out to be 2198.

Turning to DQWRNALTAAANLSGW, the Population under setting [3] is reported as 0.00526%. Regarding KLFWAICIMRWCRRAF, the “Rank (after)” value under setting [4] was found to be 175. Also, the “Rank (before)” value under setting [5] is recorded as 1070. Regarding SEFILQIILWMNPKIV, the “Rank (after)” value under setting [4] turned out to be 165. Under setting [5], the “Rank (before)” value is reported as 2449. The matching figures for TFLGHLYNALVQAAF: 453 and 2584. On the same counts, the results for PQDLEWFYERLVSLIL are 423 and 2328. AVLYTFLINLTHPTNF: the Population under setting [6] is on record as 0.00402%. Turning to YAFTDHLHRYVVQRGV, under setting [1], the “P3_MAL Rank (after)” value came to 209. The “P3_MAL Rank (before)” value under setting [2] stood at 1463. Regarding KMQKWKDALTKVASL, the “P3_MAL Rank (after)” value under setting [7] is on record as 673. Moreover, the “P3_MAL Rank (before)” value under setting [8] was determined as 3697. Sequence YAFTDHLHRYLVQRGV showed a Population under setting [3] of 0.00451%. Regarding GFYERQVSLVLGDTKV, the “P8_MAL Rank (after)” value under setting [1] is recorded as 281. Further, under setting [2], the “P8_MAL Rank (before)” value came to 1569. RFFQNKMRYHLQQLQH: the “P3_MAL Rank (after)” value under setting [9] is 487. The “P3_MAL Rank (before)” value under setting [10] was 2617. For the sequence NGHESELIKEIVVTIV, under setting [7], the “P3_MAL Rank (after)” value worked out at 647. Further, the “P3_MAL Rank (before)” value under setting [8] is on record as 3257. For the sequence RGFLSHLRYHLPAPQH, under setting [11], the “Rank (after)” value was determined as 129. The “Rank (before)” value under setting [12] came to 333.

As for RGLLSHLRHHLLGKDH, the “Rank (after)” value under setting [11] worked out at 450. Moreover, the “Rank (before)” value under setting [12] is 2429. Turning to RGFLSHLHHALRLNKIEAF, under setting [13], the “P3_MAL Rank (after)” value was determined as 747. In addition, the “P3_MAL Rank (before)” value under setting [14] is listed as 2390. In the case of TFLGNLYNPLVQAGLH, the “P8_MAL Rank (after)” value under setting [9] is on record as 521. Besides, under setting [10], the “P8_MAL Rank (before)” value was 2615. In the case of RYIMPHPQVLSQKKQQ, under setting [13], the “P3_MAL Rank (after)” value is recorded as 725. Besides, the “P3_MAL Rank (before)” value under setting [14] was found to be 2329. Regarding RLLKWQQAMHQFHRWV, the “P3_MAL Rank (after)” value under setting [9] is 563. The “P3_MAL Rank (before)” value under setting [10] is listed as 2488. As to PNLRTNVLHYLMRTKT, the “Rank (after)” value under setting [11] was found to be 171. In addition, the “Rank (before)” value under setting [12] was 2695. Consider RGFRSHLRQHLQAKDH, for which the “P3_MAL Rank (after)” value under setting [13] was 772. Moreover, the “P3_MAL Rank (before)” value under setting [14] came out at 2410. Take AFRYTFLIILTDPTNF: the “P8_MAL Rank (after)” value under setting [7] is on record as 599. Further, the “P8_MAL Rank (before)” value under setting [8] was determined as 1916. In the case of WFYERLVSHMLRDTKV, the “Rank (after)” value under setting [4] is 179. Also, under setting [5], the “Rank (before)” value came to 1232.

Regarding MVRVKAFHKRLKTALG, the “Rank (after)” value under setting [11] worked out at 438. The “Rank (before)” value under setting [12] came to 2922.

Regarding SEFIQKISLWMNAKIV, the “Rank (after)” value under setting [4] stood at 171. Moreover, the “Rank (before)” value under setting [5] turned out to be 2486. As to PKLRTKVLKYQMRTKT, the “Rank (after)” value under setting [11] worked out at 426. Further, the “Rank (before)” value under setting [12] was found to be 2762. As to KNLFNELVSKNIRTFM, the “Rank (after)” value under setting [4] was 116. The “Rank (before)” value under setting [5] stood at 732. As to YAFTGHLHCYLVQRGI, the “P3_MAL Rank (after)” value under setting [1] worked out at 194. Besides, the “P3_MAL Rank (before)” value under setting [2] turned out to be 1375. On to TFLGQTYNAQAPAEIP, for which the “P8_MAL Rank (after)” value under setting [7] amounted to 644. Under setting [8], the “P8_MAL Rank (before)” value is 2613. RNFAGQLAGLTLQNGDEGK: the “P3_MAL Rank (after)” value under setting [7] was 607. Besides, the “P3_MAL Rank (before)” value under setting [8] was found to be 2604. Turning to WFYERLVGLIMRDTKV, the “Rank (after)” value under setting [4] was found to be 129. Further, under setting [5], the “Rank (before)” value came out at 1172. For AFLWAQLNSVLGNPTM, under setting [4], the “Rank (after)” value turned out to be 156. Also, the “Rank (before)” value under setting [5] turned out to be 1778. For RGVLSRLRHHLQAKDH, the “P3_MAL Rank (after)” value under setting [9] is on record as 551. Under setting [10], the “P3_MAL Rank (before)” value is 2427. Take HQALWALMWAKHQTPI: the “P3_MAL Rank (after)” value under setting [7] is reported as 623. For the same sequence, under setting [8], the “P3_MAL Rank (before)” value is reported as 2894. Regarding SSCREGLWRLLELCKK, the “P3_MAL Rank (after)” value under setting [7] stood at 635. Further, the “P3_MAL Rank (before)” value under setting [8] was 3210. Regarding LFYEESLKQLLRANDR, under setting [1], the “P8_MAL Rank (after)” value was 276. Further, under setting [2], the “P8_MAL Rank (before)” value is reported as 1101. As for SSFLSHLFDALQRKQI, the “P3_MAL Rank (after)” value under setting [1] is given as 218. For the same sequence, the “P3_MAL Rank (before)” value under setting [2] is on record as 1020. Consider VTKLKKGKSIAPKLLR, for which the “Rank (after)” value under setting [4] was determined as 469. The “Rank (before)” value under setting [5] stood at 1562. In the case of PNLRTNVLNYLMRPKT, the “P3_MAL Rank (after)” value under setting [1] turned out to be 266. Under setting [2], the “P3_MAL Rank (before)” value is reported as 2696. For the sequence DIQSSRLKDDADLVGQ, under setting [7], the “P3_MAL Rank (after)” value came to 655. The “P3_MAL Rank (before)” value under setting [8] was found to be 1960. Under setting [3], YAFTGHLHHYLVQRGV returned a Population of 0.00564%. Turning to RLLKWKEEMHQFHSWV, the “P3_MAL Rank (after)” value under setting [1] was found to be 206. Moreover, the “P3_MAL Rank (before)” value under setting [2] was found to be 2531.

Consider WFYERLVSLMLRNTKV, for which the “P8_MAL Rank (after)” value under setting [9] is given as 540. The “P8_MAL Rank (before)” value under setting [10] is reported as 1225. For RFWERPRYLTPSNNHR, under setting [13], the “P3_MAL Rank (after)” value is 769. In addition, the “P3_MAL Rank (before)” value under setting [14] is reported as 2322.

DDAVWVYEHLVKFLEG: the “P8_MAL Rank (after)” value under setting [7] worked out at 617. Besides, the “P8_MAL Rank (before)” value under setting [8] stood at 1988. Under setting [6], LFFWESLKQLLRSVGR returned a Population of 0.0034%. As to AWFRESLSRRLKGLLT, the “P3_MAL Rank (after)” value under setting [13] was found to be 708. For the same sequence, the “P3_MAL Rank (before)” value under setting [14] came to 1810. With SDFIQLINLLVKPKII, the “P8_MAL Rank (after)” value under setting [9] amounted to 558. The “P8_MAL Rank (before)” value under setting [10] amounted to 2443. As for AFLYTFLINLTIRPIX, under setting [6], the Population stood at 0.00371%. Take HLLKIVLEKFASHRSS: the “P8_MAL Rank (after)” value under setting [7] is reported as 614. Besides, the “P8_MAL Rank (before)” value under setting [8] amounted to 2335.

HQASWNRLWEQLKPRT: under setting [9], the “P3_MAL Rank (after)” value was determined as 505. In addition, the “P3_MAL Rank (before)” value under setting [10] was 2891. Under setting [6], WFYERLVSLILRDTKX registered a Population of 0.0034%. The same measure, in the same setting: with WFYERLVRLILRDTKV the figure was 0.00309%. As for YVLHFLLFSRREPEYI, the “P8_MAL Rank (after)” value under setting [9] is 487. Besides, the “P8_MAL Rank (before)” value under setting [10] stood at 1524. For the sequence RRTFLSHLQHHFASKG, under setting [3], the Population was 0.05%. For the same sequence, the “Rank (after)” value under setting [11] is listed as 98. Under setting [12], the “Rank (before)” value was found to be 98. Take AFLYTFLFNLTHQTNS: the “P8_MAL Rank (after)” value under setting [7] worked out at 590. The “P8_MAL Rank (before)” value under setting [8] is reported as 1883. In the case of DWFLSKLNQHLLKREK, the “Rank (after)” value under setting [11] is reported as 424. The “Rank (before)” value under setting [12] is reported as 1898. Turning to LGFLRHLRHHLQAKDH, under setting [13], the “P3_MAL Rank (after)” value is 693. Further, under setting [14], the “P3_MAL Rank (before)” value was 2082. Consider RSFVASLFQALANKGI, for which, under setting [1], the “P8_MAL Rank (after)” value was 240. Further, the “P8_MAL Rank (before)” value under setting [2] came out at 2178. On to DHHLNPPPGKAIKPEMLG, for which, under setting [11], the “Rank (after)” value came out at 442. The “Rank (before)” value under setting [12] was 1951. On to YQWRNALTAAANLRGW, for which, under setting [1], the “P3_MAL Rank (after)” value was found to be 238. Further, under setting [2], the “P3_MAL Rank (before)” value was 1525. Consider HQKGSYGEAPAEHEKR, for which, under setting [11], the “Rank (after)” value turned out to be 397. Further, the “Rank (before)” value under setting [12] was 2901.

Consider ARLPAICIVIWCSVAX, for which, under setting [3], the Population was 0.00376%.

For LFFWESLKQLLRSAGR, the Population under setting [6] worked out at 0.0034%. The same measure, in the same setting: with AFLYTFLNNLTHPTNF the figure was 0.00309%.

Consider AFPDTFLIKLPHPTNV, for which the “P8_MAL Rank (after)” value under setting [7] came to 611. Moreover, the “P8_MAL Rank (before)” value under setting [8] came to 1918. As to TFLGPLYNALVQAGIP, the “Rank (after)” value under setting [4] was 120. Also, under setting [5], the “Rank (before)” value is recorded as 2553.
